These results are taken from patent publication US12472174B2, “Bupropion dosage forms with reduced food and alcohol dosing effects” (ANTECIP BIOVENTURES II LLC, priority 2022, dated 2025).

The test system of data set [1] is patients with agitation associated with Alzheimer's disease. In words: Phase 2/3 randomized, double-blind, controlled clinical trial in agitation associated with Alzheimer's disease. The class given is in vivo, human. How it is done:
A Phase 2/3 randomized, double-blind, controlled, multicenter, U.S. clinical trial was conducted to evaluate the efficacy and safety of DM/BU in patients with agitation associated with Alzheimer's disease. A total of 366 patients with a diagnosis of probable Alzheimer's disease and clinically meaningful agitation associated with their disease were randomized, initially in a 1:1:1 ratio, to receive DM/BU (dextromethorphan/bupropion, dose escalated from 30 mg/105 mg once daily in the first week, to 30 mg/105 mg twice daily in the second week, to 45 mg/105 mg twice daily thereafter), bupropion (dose escalated from 105 mg once daily in the first week to 105 mg twice daily thereafter), or matching placebo, for 5 weeks. An independent data monitoring committee performed an interim futility analysis and recommended no further randomization to the bupropion arm. Subsequently, patients were randomized in a 1:1 ratio to receive DM/BU or placebo. Total patients randomized were 159, 49, and 158 to the DM/BU, bupropion, and placebo arms, respectively. The mean Cohen-Mansfield Agitation Inventory (CMAI) total scores at baseline were 60.8, 66.1, and 59.3, respectively for the DM/BU, bupropion, and placebo groups. The minimum score on the CMAI is 29, corresponding to the total absence of symptoms, with higher scores corresponding to greater agitation. The primary endpoint of the study was the change from baseline in the CMAI total score at Week 5. P-values were calculated based on least square mean estimates.
Inclusion criteria included male or female […], diagnosis of probable Alzheimer's disease, according to the 2011 NIA-AA criteria, diagnosis of agitation, according to the IPA provisional definition of agitation, MMSE score between 10 and 24, an NPI-AA score ≥4, and community dwelling. Exclusion criterial included dementia of non-Alzheimer's type and current use of a selective serotonin reuptake inhibitor and/or a serotonin and norepinephrine inhibitor (SSRI/SNRI).

For data set [2] the following is noted: powder; cited from earlier work.

The structures appear in SMILES notation. Structures can show the parent of a compound that is named as a salt.

Take `CC(NC(C)(C)C)C(=O)c1cccc(Cl)c1` (stereo not shown) [Bupropion, bupropion]: in data set [1] (Week 5, primary endpoint, placebo 11.5, p=0.010), the “mean reduction from baseline in CMAI total score” value turned out to be 10.0 points. In data set [1] (both, human, in vivo, 5 weeks), the Diarrhea is recorded as 3 (6.1%) number of subjects (% of subjects), the “Discontinuation due to AEs” value is on record as 1 (2.0%) number of subjects (% of subjects), the Dizziness is reported as 5 (10.2%) number of subjects (% of subjects) and the Falls is 7 (14.3%) number of subjects (% of subjects). Further, in data set [1] (both, human, in vivo, 5 weeks), the Fatigue is 5 (10.2%) number of subjects (% of subjects), the Headache is listed as 3 (6.1%) number of subjects (% of subjects), the Insomnia is on record as 3 (6.1%) number of subjects (% of subjects) and the “Serious AEs” value is reported as 4 (8.2%) number of subjects (% of subjects). Further, in data set [1] (both, human, in vivo, 5 weeks), the Somnolence is listed as 2 (4.1%) number of subjects (% of subjects); the “Subjects with any TEAE” value is on record as 30 (61.2%) number of subjects (% of subjects); the “diarrhea, adverse event rate” value was 6.1%; the “dizziness, adverse event rate” value stood at 10.2%. In data set [1] (both, human, in vivo, 5 weeks), the “rate of discontinuation due to adverse events” value is listed as 2.0%; the “serious adverse events, patients” value was 8.2%; the “somnolence, adverse event rate” value amounted to 4.1%. Also, the deaths result in data set [1] (one in the placebo arm) is “one”.

`COc1ccc2c(c1)[C@]13CCCC[C@@H]1[C@H](C2)N(C)CC3` [Dextromethorphan hydrobromide, morphinan, 3-methoxy-17-methyl-, (9α, 13α, 14α), hydrobromide monohydrate]: the solubility in water entry in data set [2] is recorded as “sparingly soluble in water”.

Regarding `CC(NC(C)(C)C)C(=O)c1cccc(Cl)c1.Cl` (racemic) [Bupropion hydrochloride, (±)-1-(3-chlorophenyl)-2-[(1,1-dimethylethyl)amino]-1-propanone hydrochloride], the solubility in water result in data set [2] was “highly soluble in water”.
